Earlier results, collected in publication PMC9374181 (Toxicology and applied pharmacology, 2022).
Like-named read-outs stand apart in the source and are kept apart here.

Assays:
[1] = rat models, IM
[2] = general statement on approved oximes

C[n+]1ccccc1/C=N/O [Oxime 2-PAM, pralidoxime]
Cmax ([1]; 40 mg/kg, ref Green et al., 1986): 14500 ng/mL
plasma T1/2 [2]: less than 90 min
published half-life (published value, no reference given): less than 2 hours

O/N=C/c1cc[n+](COC[n+]2ccc(/C=N/O)cc2)cc1 [obidoxime]
Cmax ([1]; 50 mg/kg, no reference given): 26000 ng/mL
plasma T1/2 [2]: less than 90 min
plasma T1/2 (ref Alioth-Streichenberg et al., 1991): 35 min

NC(=O)c1cc[n+](COC[n+]2ccccc2/C=N/O)cc1 [asoxime]
Cmax ([1]; 50 mg/kg, ref Cassel and Fosbraey, 1996): 900 ng/mL
plasma T1/2 [2]: less than 90 min
plasma T1/2 (ref Cassel and Fosbraey, 1996): 48 min
